Values after ≈ are worked out from the molar mass of the structure shown.

The first assay concerns KB. Nature of the assay: Cytotoxicity against human KB cells.
Settings: not given
Type of assay: functional.
Consider `CC(=O)O[C@H]1C(=O)[C@]2(C)[C@H](O)C[C@H]3OC[C@@]3(OC(C)=O)[C@H]2[C@H](OC(=O)c2ccccc2)[C@]2(O)C[C@H](OC(=O)[C@H](O)[C@@H](NC(=O)c3ccccc3)c3ccccc3)C(C)=C1C2(C)C`, for which the ED50 amounted to 3 ×10⁻⁵ ug/ml.

Staying with this assay, now noted: Homo sapiens, KB; read-out: ED50 (the source's name).
Regarding `C=C(C)[C@@]12C[C@H](OC(=O)[C@H](OC(C)=O)[C@@H](NC(=O)c3ccccc3)c3ccccc3)C(C)=C1[C@@H](OC(C)=O)C(=O)[C@]1(C)[C@@H](OC(C)=O)C[C@H](OC(C)=O)[C@@](O)(COC(C)=O)[C@H]1[C@@H]2OC(=O)c1ccccc1`, the EC50 is 2.5 µg/mL (≈ 2.55 µM).
As to `CC(=O)O[C@H]1C[C@H]2OC[C@@]2(OC(C)=O)[C@H]2[C@H](OC(=O)c3ccccc3)[C@]3(O)C[C@H](OC(=O)[C@H](OC(C)=O)[C@@H](NC(=O)c4ccccc4)c4ccccc4)C(C)=C([C@@H](O)C(=O)[C@]12C)C3(C)C`, the EC50 was less than 0.01 µg/mL.
On the same count and under the same terms, for `C=C1[C@@H](O)C[C@@H](OC(C)=O)[C@@]2(C)[C@@H](OC(C)=O)[C@H](OC(C)=O)C3=C(C)[C@@H](OC(C)=O)C[C@@](O)([C@@H](OC(C)=O)[C@H]12)C3(C)C` [DECINNAMOYLTAXININE] the value was 28 µg/mL (≈ 47.1 µM); for `CC(=O)O[C@@]12CO[C@@H]1C[C@H](O)[C@@]1(C)C(=O)[C@H](O)C3=C(C)[C@@H](O)C[C@@](O)([C@@H](OC(=O)c4ccccc4)[C@H]21)C3(C)C`, 1 µg/mL (≈ 1.84 µM).
On the same count and under the same terms, the value for `CC(=O)O[C@H]1C(=O)[C@@H](C)C([C@@]2(OC(C)=O)CCC(=O)OC2)[C@H](OC(=O)c2ccccc2)[C@]2(O)C[C@H](OC(=O)[C@H](O)[C@@H](NC(=O)c3ccccc3)c3ccccc3)C(C)=C1C2(C)C` (stereo partly specified) was 2 µg/mL (≈ 2.34 µM).
The same measure, in the same setting: for `CC(=O)O[C@H]1C(=O)[C@]2(C)C(=O)C[C@H]3OC[C@@]3(OC(C)=O)[C@H]2[C@H](OC(=O)c2ccccc2)[C@]2(O)C[C@H](OC(=O)C(=O)[C@@H](NC(=O)c3ccccc3)c3ccccc3)C(C)=C1C2(C)C` the value was 12 µg/mL (≈ 14.1 µM); for `CC(=O)O[C@H]1C(=O)[C@]2(C)C(=O)C[C@H]3OC[C@@]3(OC(C)=O)[C@H]2[C@H](OC(=O)c2ccccc2)[C@]2(O)C[C@H](OC(=O)[C@H](O)[C@@H](NC(=O)c3ccccc3)c3ccccc3)C(C)=C1C2(C)C`, 0.5 µg/mL (≈ 0.587 µM); for `CC(=O)OC[C@@]1(O)[C@H]2[C@H](OC(=O)c3ccccc3)[C@]3(O)C[C@H](OC(=O)[C@H](O)[C@@H](NC(=O)c4ccccc4)c4ccccc4)C(C)=C([C@@H](OC(C)=O)C(=O)[C@]2(C)[C@@H](O)C[C@@H]1O)C3(C)C`, 0.2 µg/mL (≈ 0.229 µM).
Regarding `CC(=O)O[C@@]12CO[C@@H]1C[C@H](O)[C@@]1(C)C(=O)C(=O)C3=C(C)[C@@H](OC(=O)[C@H](O)[C@@H](NC(=O)c4ccccc4)c4ccccc4)C[C@@](O)([C@@H](OC(=O)c4ccccc4)[C@H]21)C3(C)C`, the EC50 was 0.02 µg/mL (≈ 0.0247 µM).
The same measure, in the same setting: the value for `CC(=O)O[C@H]1C(=O)[C@]2(C)[C@@H](OC(C)=O)C[C@H]3OC[C@@]3(OC(C)=O)[C@H]2[C@H](OC(=O)c2ccccc2)[C@]2(O)C[C@H](OC(=O)[C@H](OC(C)=O)[C@@H](NC(=O)c3ccccc3)c3ccccc3)C(C)=C1C2(C)C` was 0.03 µg/mL (≈ 0.032 µM).

The test system of a further assay is J774.2. As to the kind of experiment: Cytotoxicity against mouse J774.2 cells. It is filed as functional.
Settings: not given
`CC(=O)O[C@H]1C(=O)[C@@]2(C)[C@H]([C@H](OC(=O)c3ccccc3)[C@]3(O)C[C@H](OC(=O)[C@H](OC(C)=O)[C@@H](NC(=O)c4ccccc4)c4ccccc4)C(C)=C1C3(C)C)[C@]1(OC(C)=O)CO[C@@H]1C[C@@H]2O` yielded an ED50 of 3 ×10⁻⁷ M.
Same read-out and setting: the value for `CC(=O)O[C@H]1C(=O)[C@]2(C)[C@@H](OC(C)=O)C[C@H]3OC[C@@]3(OC(C)=O)[C@H]2[C@H](OC(=O)c2ccccc2)[C@]2(O)C[C@H](OC(=O)[C@H](O)[C@@H](NC(=O)c3ccccc3)c3ccccc3)C(C)=C1C2(C)C` [PACLITAXEL C7 ACETYLCARBOXYLIC ACID ESTER] was 9 ×10⁻⁸ M.

The next assay is filed under the species Bos taurus. As to the kind of experiment: Inhibition of bovine brain tubulin assembly assessed as drug level causing decrease in tubulin depolymerization rate.
Settings: not given
As to `CC(=O)O[C@H]1C(=O)[C@]2(C)[C@@H](OC(=O)c3ccc(C4(C(F)(F)F)N=N4)cc3)C[C@H]3OC[C@@]3(OC(C)=O)[C@H]2[C@H](OC(=O)c2ccccc2)[C@]2(O)C[C@H](OC(=O)[C@H](O)[C@@H](NC(=O)c3ccccc3)c3ccccc3)C(C)=C1C2(C)C`, the ID50 turned out to be 340 nM.
On the same count and under the same terms, for `CC(=O)O[C@H]1C(=O)[C@@]2(C)[C@H]([C@H](OC(=O)c3ccccc3)[C@]3(O)C[C@H](OC(=O)[C@H](O)[C@@H](NC(=O)c4ccccc4)c4ccccc4)C(C)=C1C3(C)C)[C@]1(OC(C)=O)CO[C@@H]1C[C@@H]2O` the value was 100 nM.
Still for that read-out and setting: the value for `CC(=O)O[C@H]1C(=O)[C@]2(C)[C@@H](OC(=O)c3ccccc3)C[C@H]3OC[C@@]3(OC(C)=O)[C@H]2[C@H](OC(=O)c2ccccc2)[C@]2(O)C[C@H](OC(=O)[C@H](O)[C@@H](NC(=O)c3ccccc3)c3ccccc3)C(C)=C1C2(C)C` was 170 nM.

The values above are taken from ChEMBL document CHEMBL1151135, “The Chemistry of Taxol, a Clinically Useful Anticancer Agent” (1990).
